Source: patent US20250320184A1 (SIRONAX LTD., priority 2022, published 2025)

Biological target: T1, SARM1 (50-724) (Homo sapiens, UniProt Q6SZW1)
T1 sequence (Q6SZW1 50-724): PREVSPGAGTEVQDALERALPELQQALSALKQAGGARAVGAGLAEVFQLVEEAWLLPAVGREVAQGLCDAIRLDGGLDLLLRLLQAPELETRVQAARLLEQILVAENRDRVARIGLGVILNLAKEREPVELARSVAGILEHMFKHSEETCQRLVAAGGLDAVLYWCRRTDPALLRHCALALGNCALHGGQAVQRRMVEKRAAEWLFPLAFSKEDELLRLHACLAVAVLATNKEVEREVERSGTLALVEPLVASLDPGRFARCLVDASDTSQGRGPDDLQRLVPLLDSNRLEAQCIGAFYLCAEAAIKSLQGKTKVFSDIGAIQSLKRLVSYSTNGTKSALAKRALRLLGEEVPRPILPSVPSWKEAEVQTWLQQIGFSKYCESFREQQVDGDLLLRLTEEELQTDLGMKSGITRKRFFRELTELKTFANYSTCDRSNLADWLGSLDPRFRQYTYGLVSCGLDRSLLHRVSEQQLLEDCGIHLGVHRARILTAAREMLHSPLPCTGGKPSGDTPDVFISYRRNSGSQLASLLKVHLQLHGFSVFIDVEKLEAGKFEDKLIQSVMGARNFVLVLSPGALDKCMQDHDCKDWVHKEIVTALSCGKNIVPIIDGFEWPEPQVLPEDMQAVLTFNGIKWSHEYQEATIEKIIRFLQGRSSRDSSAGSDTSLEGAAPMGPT
Assay: biochemical
Description: An enzymatic assay was performed in a 384-well plate using Dulbecco's phosphate-buffered saline (PBS) as the reaction buffer. […] The reaction was initiated by adding a mixture of 200 μM nicotinamide mononucleotide (NMN) as activator and 100 μM NAD^+ as substrate. After 1 h of incubation at room temperature, the reaction was terminated with 10 times volume of 70% acetonitrile, then centrifuged at 3800 rpm for 10 min.

IC50 [nM]	Structure (SMILES)
100 to 500	N#CCn1ccc2ccc(NS(=O)(=O)c3cccc(Cl)c3Cl)cc2c1=O [Compound 80, 2,3-dichloro-N-(2-(cyanomethyl)-1-oxo-1,2-dihydroisoquinolin-7-yl)benzenesulfonamide]
< 100	O=C1NCCc2ccc(NS(=O)(=O)c3cccc(Cl)c3Cl)cc21 [Compound 20, 2,3-dichloro-N-(1-oxo-1,2,3,4-tetrahydroisoquinolin-7-yl)benzenesulfonamide]
< 100	Cc1c2c(F)cc(NC(C)c3nc(Cl)c(Cl)s3)cc2nn1CC(N)=O (racemic) [Compound 389, 2-(6-((1-(4,5-dichlorothiazol-2-yl)ethyl)amino)-4-fluoro-3-methyl-2H-indazol-2-yl)acetamide]
100 to 500	CC(Nc1ccc2c(c1)C(=O)NCC2)c1cccc(Cl)c1Cl (racemic) [Example 100, 7-((1-(2,3-dichlorophenyl)ethyl)amino)-3,4-dihydroisoquinolin-1(2H)-one]
100 to 500	CC(Nc1ccc2cc[nH]c(=O)c2c1)c1nn2c(c1Cl)CCCC2 (racemic) [Compound 232, 7-((1-(3-chloro-4,5,6,7-tetrahydropyrazolo[1,5-a]pyridin-2-yl)ethyl)amino)isoquinolin-1(2H)-one]
< 100	CCC(Nc1ccc2cc[nH]c(=O)c2c1)c1cccc(Cl)c1Cl (racemic) [Example 143, 7-((1-(2,3-dichlorophenyl)propyl)amino)isoquinolin-1(2H)-one]
< 100	O=C1NCCCc2ccc(NS(=O)(=O)c3cccc(Cl)c3Cl)cc21 [Compound 41, 2,3-dichloro-N-(1-oxo-2,3,4,5-tetrahydro-1H-benzo[c]azepin-8-yl)benzenesulfonamide]
< 100	CC(Nc1ccc2c(c1)C(=O)N(C(C)C(N)=O)C2(C)C)c1nc(Cl)c(Cl)s1 (mixture of isomers) [Compound 334, 2-(5-((1-(4,5-dichlorothiazol-2-yl)ethyl)amino)-1,1-dimethyl-3-oxoisoindolin-2-yl)propanamide]
< 100	CC(Nc1cc(F)c2ncn(-c3n[nH]cc3Cl)c(=O)c2c1)c1nc(Cl)c(Cl)s1 (racemic) [Example 370, 3-(4-chloro-1H-pyrazol-3-yl)-6-((1-(4,5-dichlorothiazol-2-yl)ethyl)amino)-8-fluoroquinazolin-4(3H)-one]
< 100	CC(Nc1cc(F)c2ncn(CC(N)=O)c(=O)c2c1)c1ccc(F)c(Cl)c1Cl (racemic) [Compound 351, 2-(6-((1-(2,3-dichloro-4-fluorophenyl)ethyl)amino)-8-fluoro-4-oxoquinazolin-3(4H)-yl)acetamide]
100 to 500	O=S(=O)(Nc1cc(F)c2cn[nH]c2c1)c1cccc(Cl)c1Cl [Compound 74, 2,3-dichloro-N-(4-fluoro-1H-indazol-6-yl)benzenesulfonamide]
< 100	Cc1nn(CC(N)=O)c2cc(NC(C)c3nc(Cl)c(Cl)s3)cc(F)c12 (racemic) [Compound 337, 2-(6-((1-(4,5-dichlorothiazol-2-yl)ethyl)amino)-4-fluoro-3-methyl-1H-indazol-1-yl)acetamide]
> 1000	Cc1c2ccc(NC(C)c3snc(Cl)c3Cl)cc2nn1CC(N)=O (single isomer, unassigned) [Compound 341B]
100 to 500	C[C@H](Nc1ccc2ccnc(O)c2c1)c1cccc(Cl)c1 [Compound 92, (S)-7-((1-(3-chlorophenyl)ethyl)amino)isoquinolin-1-ol]
< 100	O=C1Nc2cc(NS(=O)(=O)c3cccc(Cl)c3Cl)ccc2C12CCCC2 [Compound 212, 2,3-dichloro-N-(2′-oxospiro[cyclopentane-1,3′-indolin]-6′-yl)benzenesulfonamide]
> 1000	Cc1nc(C(C)Nc2ccc3c(C)n(CC(N)=O)nc3c2)sc1Cl (single isomer, unassigned) [Compound 363]

IC50 [nM]	Structure (SMILES)
100 to 500	COc1nccc2ccc(NC(C)c3nc4c(s3)CN(C(=O)OC(C)(C)C)CC4)cc12 (racemic) [Compound 262, tert-butyl 2-(1-((1-methoxyisoquinolin-7-yl)amino)ethyl)-6,7-dihydrothiazolo[5,4-c]pyridine-5(4H)-carboxylate]
> 1000	CC1CCN(S(=O)(=O)Nc2ccc3c(c2)C(=O)NCC3)CC1 [Example 164, 4-methyl-N-(1-oxo-1,2,3,4-tetrahydroisoquinolin-7-yl)piperidine-1-sulfonamide]
< 100	Cc1c2ccc(NC(C)c3snc(Cl)c3Cl)cc2nn1CC(N)=O (racemic) [Compound 341, 2-(6-((1-(3,4-dichloroisothiazol-5-yl)ethyl)amino)-3-methyl-2H-indazol-2-yl)acetamide]
< 100	CC(Nc1ccc2cc[nH]c(=O)c2c1)c1nn(C)c(Cl)c1Cl (racemic) [Compound 256, 7-((1-(4,5-dichloro-1-methyl-1H-pyrazol-3-yl)ethyl)amino)isoquinolin-1(2H)-one]
< 100	O=c1[nH]ccc2ccc(NS(=O)(=O)c3c(Cl)ccc(Cl)c3Cl)cc12 [Compound 68, 2,3,6-trichloro-N-(1-oxo-1,2-dihydroisoquinolin-7-yl)benzenesulfonamide]
< 100	O=C1CCCc2ccc(NS(=O)(=O)c3cccc(Cl)c3Cl)cc21 [Compound 55, 2,3-dichloro-N-(8-oxo-5,6,7,8-tetrahydronaphthalen-2-yl)benzenesulfonamide]
> 1000	Cc1cc(F)cc(C(CO)Nc2ccc3c(c2)C(=O)NCC3)c1 (stereo not shown) [Example 163, 7-((1-(3-fluoro-5-methylphenyl)-2-hydroxyethyl)amino)-3,4-dihydroisoquinolin-1(2H)-one]
500 to 1000	CC(Nc1ccc2cc[nH]c(=O)c2c1)c1cc(Cl)cnc1Cl (racemic) [Example 122, 7-((1-(2,5-dichloropyridin-3-yl)ethyl)amino)isoquinolin-1(2H)-one]
< 100	O=S(=O)(Nc1ccc2c(F)n[nH]c2c1)c1cccc(Cl)c1Cl [Compound 75, 2,3-dichloro-N-(3-fluoro-1H-indazol-6-yl)benzenesulfonamide]
> 1000	Cc1ccc(C(C)Nc2ccc3c(c2)C(=O)NCC3)cc1F (racemic) [Example 123, 7-((1-(3-fluoro-4-methylphenyl)ethyl)amino)-3,4-dihydroisoquinolin-1(2H)-one]
> 1000	O=C1NCCc2ccc(NS(=O)(=O)c3cc(F)c(F)c(F)c3)cc21 [Compound 34, 3,4,5-trifluoro-N-(1-oxo-1,2,3,4-tetrahydroisoquinolin-7-yl)benzenesulfonamide]
< 100	CC(Nc1ccc2c(c1)NC(=O)C2(C)C)c1c(Cl)ccc(F)c1Cl (racemic) [Compound 215, 6-[1-(2,6-dichloro-3-fluoro-phenyl)ethylamino]-3,3-dimethyl-indolin-2-one]
< 100	O=C1NC(CO)CCc2ccc(NS(=O)(=O)c3cccc(Cl)c3Cl)cc21 (single isomer, unassigned) [Compound 304]
< 100	Cc1n[nH]c(=O)c2cc(NC(C)c3c(Cl)ccc(F)c3Cl)ccc12 (racemic) [Example 222, 7-((1-(2,6-dichloro-3-fluorophenyl)ethyl)amino)-4-methylphthalazin-1(2H)-one]
< 100	Cc1n[nH]c(=O)c2cc(NC(C)c3nccc(Cl)c3Cl)ccc12 (racemic) [Compound 266, 7-((1-(3,4-dichloropyridin-2-yl)ethyl)amino)-4-methylphthalazin-1(2H)-one]
